Measured values published in patent publication US20060045905A1, “Composition for repressing transformation growth factor beta” (Taiyokagaku Co., Ltd., priority 2004, published 2006).

System: mice
Type: in vivo
Conditions: oral administration of theanine by 5 g/kg
Text: Theanine used in the invention has a high security. […] Furthermore, theanine is known as a principal component of deliciousness of tea and used as a food additive for use as gustatory. An amount of theanine to be added is not limited under the Food Sanitation Law. Moreover, differing from conventional medical substances, theanine has no adverse side effect. Consequently, the composition of the invention can be used as a safe and effective composition for repressing TGF-β.

## CCNC(=O)CC[C@H](N)C(=O)O [theanine, L-theanine]
  mortality in acute toxicity test: no mice died
